Experimental data from PubChem BioAssay (NCI).
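Five compound concentrations were applied to cells in 96-well plates for 48 hours; endpoints were derived by simple linear interpolation of the resulting dose-response curve. At the GI50, growth is halved. TGI: concentration producing complete growth inhibition.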

How the values were obtained:
Experiment in all cases: NCI tumour cell line growth inhibition, 48 h
SF-295 CNS = tested on: SF-295 CNS
MOLT-4 leukemia = tested on: MOLT-4 leukemia
RPMI-8226 leukemia = tested on: RPMI-8226 leukemia
COLO 205 colon = tested on: COLO 205 colon
HT29 colon = tested on: HT29 colon
SK-MEL-28 melanoma = tested on: SK-MEL-28 melanoma
CCRF-CEM leukemia = tested on: CCRF-CEM leukemia

SMILES	TGI (SF-295 CNS) [µM]	TGI (MOLT-4 leukemia) [µM]	TGI (RPMI-8226 leukemia) [µM]	TGI (COLO 205 colon) [µM]	TGI (HT29 colon) [µM]	TGI (SK-MEL-28 melanoma) [µM]	TGI (CCRF-CEM leukemia) [µM]	GI50 (MOLT-4 leukemia) [µM]	GI50 (RPMI-8226 leukemia) [µM]	GI50 (SK-MEL-28 melanoma) [µM]	GI50 (CCRF-CEM leukemia) [µM]	GI50 (HT29 colon) [µM]
C=CCNC(=S)/N=C/C(C(=O)Nc1ccccc1C)=C(\C)O	> 100	> 100	> 100	> 100	> 100	–	–	–	–	–	–	–
CN1CCC2(CC1)C(=NC1CCCCC1)NC(=O)N2c1ccccc1	> 100	> 100	> 100	> 100	> 100	> 100	> 100	–	–	–	–	–
CC1(C)CC(=O)C2=C(C1)OC1(CC2c2ccc(Cl)cc2)CC(c2ccc(Cl)cc2)C2=C(CC(C)(C)CC2=O)O1 (stereo unspecified)	> 53.2	13.6	28.5	36.6	> 100	34	> 76.7	–	–	–	–	–
CCOC(=O)C(C(=O)COC(C)(C)C)[C@@H]1C=C[C@H](OC(C)=O)C1 (stereo partly specified)	> 100	> 100	> 100	> 100	> 100	> 100	> 100	–	–	–	–	–
CN(C)CCNC(=O)c1c(O)ccc2c1c1c(n2CCc2ccccc2)C(=O)c2ccccc2C1=O	15.9	16.2	11.6	34.4	19.3	4.57	6.43	–	–	–	–	–
CC(C)C(NC(=O)C(Cc1ccccc1)NC(=O)[C@H]1CCC[C@H]1NC(=O)C(Cc1ccc(OC(C)(C)C)cc1)NC(=O)OC(C)(C)C)C(N)=O (stereo partly specified)	34.5	46.5	> 100	36.9	53.3	40	39.4	–	–	–	–	–
O=C1C=C(N2CCN(CCOCCO)CC2)C(=O)c2c(O)ccc(O)c21	27.8	–	> 100	2.86	15.5	32.7	14.8	–	–	–	–	–
COc1ccc(-n2cnc3c(NC(Cc4ccccc4)C(=O)O)ncnc32)cc1 (stereo unspecified)	> 100	–	> 100	> 100	> 100	> 100	> 100	–	–	–	–	–
C=CC[C@H](N=C(SC)SC)C(=O)N1C(=O)N(C)[C@@H](C)[C@H]1c1ccccc1	> 100	> 100	–	> 100	> 100	> 100	> 100	–	–	–	–	–
Cc1cc2ccc(N)nc2[nH]c1=O	> 100	–	> 100	> 100	> 100	–	–	–	–	–	–	–
COc1ccc(-c2n/c(=C\c3c(O)[nH]c4ccccc34)cc3c2=Nc2ccccc2-3)cc1	–	4.27	6.87	–	2.29	2.32	7.1	2.03	2.35	1.07	2.24	1.1
O=C(Nc1ccc2ccccc2c1)c1cc2cc(CCl)ccc2oc1=O	> 100	> 100	> 100	> 100	> 100	> 100	> 100	–	–	–	–	–
CCOc1cc2c(cc1O)C(N)C[C@@H]1[C@@H]2CC[C@]2(C)[C@@H](O)CC[C@@H]12 (stereo partly specified)	> 100	> 100	–	> 100	> 100	> 100	71.6	–	–	–	–	–
COc1ccc2c(c1)CCC/C2=N\NS(=O)(=O)c1c(C)cc(C)cc1C	94.6	66.1	–	57.2	43.5	> 100	63.7	–	–	–	–	–
O=C(Cc1ccccc1)NN1C(=O)/C(=C\c2ccccc2O)SC1=Nc1ccccc1	> 100	> 100	> 100	> 100	> 100	> 100	–	–	–	–	–	–
CCOC(=O)C1=C(C)N(Cc2ccccc2)C2(O)C=CC(=O)C3=C(O)c4ccccc4C(=O)C312 (stereo unspecified)	31.4	> 100	31.2	30.4	> 100	> 100	36.5	–	–	–	–	–
Cc1csc(-n2c(C)nc3cc(Cl)ccc3c2=O)n1	> 100	> 100	–	> 100	> 100	> 100	> 100	–	–	–	–	–
CC(=O)c1sc2[n+](c1C)C(=O)/C(=C\c1ccccc1Cl)S2	33	> 100	49.3	28	39.2	31.1	91	–	–	–	–	–
Cc1ccc(/C=C2\N=C(N3CCCC(CO)C3)NC2=O)cc1 (stereo unspecified)	> 100	> 100	> 100	> 100	> 100	> 100	> 100	–	–	–	–	–

SMILES	TGI (SF-295 CNS) [µM]	TGI (MOLT-4 leukemia) [µM]	TGI (RPMI-8226 leukemia) [µM]	TGI (COLO 205 colon) [µM]	TGI (HT29 colon) [µM]	TGI (SK-MEL-28 melanoma) [µM]	TGI (CCRF-CEM leukemia) [µM]	GI50 (MOLT-4 leukemia) [µM]	GI50 (RPMI-8226 leukemia) [µM]	GI50 (SK-MEL-28 melanoma) [µM]	GI50 (CCRF-CEM leukemia) [µM]	GI50 (HT29 colon) [µM]
Cc1ccccc1NC(=O)Cc1csc(N=Nc2c(O)[nH]c3ccccc23)n1	38	> 100	> 100	> 100	> 100	> 1	> 100	–	–	–	–	–
Cc1ccc2c(c1C)C(=O)/C(=C/c1cccc(C)c1C(=O)O)C2	> 100	> 100	> 100	> 100	> 100	> 100	> 100	–	–	–	–	–
CCNC(=S)N/N=C(\C)c1cccc(C)n1	> 100	> 100	–	> 100	> 100	> 100	> 100	–	–	–	–	–
O=C1CC(c2ccccc2)S(=O)c2ccccc2N1 (stereo unspecified)	–	> 100	> 100	> 100	> 100	> 100	> 100	–	–	–	–	–
CC(C)(C)C1=C(Br)C(OC(=O)C(F)(F)F)(C(C)(C)C)OP1(=O)c1ccccc1 (stereo unspecified)	> 100	–	–	34	> 100	> 100	–	–	–	–	–	–
CN(C)CCCNC(=O)c1cn2c(ccc3sc4ccccc4c(=O)c32)n1	17.4	–	5.36	7.95	2.74	19.6	> 20.1	–	–	–	–	–
CCn1c2ccccc2c2cc(Nc3cc(C)[nH]c(=O)n3)ccc21	> 100	–	–	> 100	> 100	> 100	–	–	–	–	–	–
C(#Cc1ccccc1)SC1=C(c2ccccc2)S/C(=C(\SC#Cc2ccccc2)c2ccccc2)S1	> 100	> 100	–	> 100	> 100	> 100	> 100	–	–	–	–	–
C[C@H](CCC(=O)NCC(=O)O)[C@H]1CC[C@H]2[C@@H]3[C@H](O)C[C@@H]4C[C@H](O)CC[C@]4(C)[C@H]3CC[C@]12C	> 100	> 100	> 100	> 100	> 100	> 100	> 100	–	–	–	–	–
COc1ccc(CNc2nc3ccccc3nc2C(=O)O)cc1	> 100	–	68.2	> 100	> 100	> 100	> 100	–	–	–	–	–
Cc1ccc(/C=C2/N=C(N/N=C\c3ccccc3)NC2=O)cc1	> 100	72.2	48.3	> 100	> 100	> 100	–	–	–	–	–	–
CC(=O)NC1C(OCc2ccccc2)OC(CO)C(O)C1OCC(=O)N[C@@H](C)C(=O)N[C@H](CCC(=O)NCCCNc1ccc([N+](=O)[O-])c2[nH]c3ccccc3c(=O)c12)C(N)=O (stereo partly specified)	> 100	–	> 100	> 100	> 100	> 100	> 100	–	–	–	–	–
CC/C(=C\c1ccc(OC)cc1)c1ccc(OC)cc1	> 100	> 100	> 100	> 100	> 100	–	> 100	–	–	–	–	–
O=C(O)c1ccc(N/C(=C(/C(Cl)=C(Cl)Cl)[N+](=O)[O-])n2nnc3ccccc32)cc1	> 100	> 100	> 100	> 100	> 100	> 100	> 100	–	–	–	–	–
Cc1ccc(S(=O)(=O)Nn2c(O)c(C#N)c(-c3ccc([N+](=O)[O-])cc3)c(C#N)c2=O)cc1	> 100	> 100	–	> 100	> 100	> 100	> 100	–	–	–	–	–
CSCCCNC(=O)[C@H](CSC)NC(=O)c1csc(CCNC(=O)[C@@H](NSc2ccccc2[N+](=O)[O-])C(C)O)n1 (stereo partly specified)	> 100	> 100	–	> 100	> 100	> 100	> 100	–	–	–	–	–
Cc1c(O)c(=O)ccn1CCc1ccc(O)cc1	> 100	> 100	45.4	> 100	> 100	> 100	42	–	–	–	–	–
CC[C@@]1(O)C(=O)OCc2c1cc1n(c2=O)Cc2c-1nc1ccccc1c2/C=N\NC(=O)C(N)Cc1c[nH]c2ccccc12 (stereo partly specified)	4.76	1.18	17.3	> 100	> 100	> 100	3.44	–	–	–	–	–
N#Cc1nc(-c2cccc(-c3nc(C#N)c(N)o3)n2)oc1N	> 100	> 100	> 100	> 100	> 100	> 100	46.9	–	–	–	–	–

SMILES	TGI (SF-295 CNS) [µM]	TGI (MOLT-4 leukemia) [µM]	TGI (RPMI-8226 leukemia) [µM]	TGI (COLO 205 colon) [µM]	TGI (HT29 colon) [µM]	TGI (SK-MEL-28 melanoma) [µM]	TGI (CCRF-CEM leukemia) [µM]	GI50 (MOLT-4 leukemia) [µM]	GI50 (RPMI-8226 leukemia) [µM]	GI50 (SK-MEL-28 melanoma) [µM]	GI50 (CCRF-CEM leukemia) [µM]	GI50 (HT29 colon) [µM]
O=c1[nH]c2ccc([N+](=O)[O-])cc2nc1/C=C(\O)c1ccccc1	> 100	> 100	–	> 100	> 100	–	> 100	–	–	–	–	–
COc1ccccc1NC(=S)N/N=C/c1cccc(C)n1	> 100	> 100	> 100	> 100	> 100	> 100	> 100	–	–	–	–	–
O=c1[nH]nc(-c2ccccc2)n1-n1cnnc1	> 100	> 100	> 100	> 100	> 100	–	> 100	–	–	–	–	–
CC/C(N)=N\NC(=O)OC(C)(C)C	> 100	> 100	> 100	> 100	> 100	> 100	> 100	–	–	–	–	–
O=[N+]([O-])C(C=C(n1nnc2ccccc21)n1nnc2ccccc21)=C(n1nnc2ccccc21)n1nnc2ccccc21	> 100	93.4	> 100	> 100	> 100	–	> 100	–	–	–	–	–
COc1cc(/C=N/NC2=NCCN2)ccc1O	> 100	> 100	> 100	> 100	> 100	> 100	> 100	–	–	–	–	–
COc1cc2c3c(cc(Cl)nc3c1OC)C(O)(CC(=O)c1ccccc1)C(=O)N2 (stereo unspecified)	32.8	–	> 26.3	52.4	44.7	33.5	12.5	–	–	–	–	–
Cc1ccc(S(=NS(=O)(=O)c2ccc(C)cc2)c2ccc(C)cc2)cc1	> 100	–	> 100	> 100	> 100	> 100	> 100	–	–	–	–	–
O=C1N(c2ccccc2)C(=S)/C(=C/c2ccc(Cl)cc2)N1c1ccc(Cl)cc1	> 100	13.5	52.5	> 100	> 100	> 100	61.1	–	–	–	–	–
NN/C(=N\S(=O)(=O)c1ccc(S(=O)(=O)c2ccccc2)s1)Nc1ccc(Cl)cc1	> 100	41.2	> 100	46.2	65.4	> 100	–	–	–	–	–	–
C=C1C(=O)OC2C3OC(C)(CCC(O)C3COC(C)=O)CC(OC(=O)/C(=C/C)COC(C)=O)C12 (stereo unspecified)	22.3	0.389	0.339	0.246	0.521	0.431	0.269	–	–	–	–	–
Cc1ccc(NC(=O)CC(=O)n2nc(C)c(N=Nc3cccc(C)c3)c2C)cc1	> 100	> 100	> 100	> 100	> 100	> 100	> 100	–	–	–	–	–
c1cc2c(cc1C1=NCCN1)c1cc(C3=NCCN3)ccc1n2CC1CCCCC1	> 100	34.8	> 100	20.4	> 100	26.7	50.2	–	–	–	–	–
COC(=O)C(NC(=O)OC(C)(C)C)P(=O)(OC)OC (stereo unspecified)	> 100	> 100	> 100	> 100	> 100	> 100	–	–	–	–	–	–
O=P(O)(O)CN1CCNCCN(CP(=O)(O)O)CC1	> 100	> 100	> 100	18.7	> 100	> 100	> 70.5	–	–	–	–	–
CC(C)=NOC(=O)Nc1cccc2c1OCO2	> 100	> 100	> 100	> 100	> 100	> 100	–	–	–	–	–	–
CC(C)(C)[Si](C)(C)OC[C@H](/C=C\CCCC(=O)O)NC1(c2ccccc2)c2ccccc2-c2ccccc21	> 100	33.9	23.3	26.5	47.6	33	–	–	–	–	–	–
NS(=O)(=O)c1ccc(N=Nc2ccc(O)c(C(=O)O)c2)cc1	> 100	> 100	> 100	> 100	> 100	> 100	–	–	–	–	–	–
